Here are results for eight compounds from patent US10689344B2, “Biphenylamide derivative Hsp90 inhibitors” (University of Kansas, priority 2013, dated 2020).

SMILES strings stand for the structures.

Assay [1] concerns Hsp90-dependent client proteins (Her2, Raf, Akt) in MCF-7 cells. As to the kind of experiment: Western blot analyses of Hsp90-dependent client proteins from MCF-7 cell lysate. Conditions: for non-Hsp90-dependent protein actin (western blot): FIG. 1; for Hsp90-dependent client proteins Her2, Raf, and Akt (western blot): FIG. 1, at the same concentration needed to manifest anti-proliferative activity (H 5-fold, L 1/2). Type of assay: cell-based. The protocol: FIG. 1—Western blot analyses of Hsp90-dependent client proteins from MCF-7 breast cancer cell lysate upon treatment with biphenyl derivatives. H represents a concentration equal to 5-fold of the anti-proliferative activity. L represents a concentration ½ of the anti-proliferative activity. Geldanamycin (G, 0.5 μM) and dimethylsulfoxide (D, 100%) were employed as positive and negative controls.
FIGS. 2A & 2B—Western blot analyses of Hsp90-dependent client proteins from MCF-7 breast cancer cell lysate upon treatment with biphenyl derivatives. Concentrations (in μM) were indicated above each line. H represents a concentration equal to 5-fold of the anti-proliferative activity. L represents a concentration equal to 0.5-fold of the anti-proliferative activity. Geldanamycin (GDA, 0.5 μM) and dimethylsulfoxide (DMSO, 100%) were employed as positive and negative controls.
FIG. 3—Western blot analyses of Hsp90-dependent client proteins from MCF-7 breast cancer cell lysate upon treatment with compound 6l. Concentrations (in μM) were indicated above each line, and geldanamycin (GDA, 0.5 μM) and dimethylsulfoxide (DMSO) were employed as positive and negative controls.
MCF-7 cells were cultured as described above and treated with various concentrations of drug, GDA in DMSO (1% DMSO final concentration), or vehicle (DMSO) for 24 h. Cells were harvested in cold PBS and lysed in RIPA lysis buffer containing 1 mM PMSF, 2 mM sodium orthovanadate, and protease inhibitors on ice for 1 h. Lysates were clarified at 14000 g for 10 min at 4° C. Protein concentrations were determined using the Pierce BCA protein assay kit per the manufacturer's instructions. Equal amounts of protein (20 μg) were electrophoresed under reducing conditions, transferred to a nitrocellulose membrane, and immunoblotted with the corresponding specific antibodies. Membranes were incubated with an appropriate horseradish peroxidase-labeled secondary antibody, developed with a chemiluminescent substrate, and visualized.
In general terms: A western blot detects proteins with antibodies after separation by electrophoresis.

Assay [2] relates to MCF-7 (estrogen receptor positive breast cancer cells). The experiment in a line: Anti-proliferation assay (MTS/PMS, 72 h), MCF-7. It is filed as cell-based. Conditions: Homo sapiens. The procedure, abridged: (§1)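 Cells seeded at 2000/well, attached overnight, then exposed to compound at varying concentrations (1% DMSO final) for 72 h at 37° C, 5% CO2. Viability by MTS/PMS, normalised to 1% DMSO controls as 100% proliferation; IC50 from separate triplicate experiments.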

In assay [3] the test system is SKBr3 (estrogen receptor negative, HER2 over-expressing breast cancer cells). The experiment in a line: Anti-proliferation assay (MTS/PMS, 72 h), SKBr3. Type of assay: cell-based. Conditions: Homo sapiens. The procedure, abridged: as §1
The test system of the next assay is SKBr3 cells. Conditions: cited from earlier work.
For assay [4], the system named is JMAR (Head and Neck Cancer). The experiment in a line: Activity of compounds in cancer cell lines, JMAR. Type of assay: cell-based. Conditions: Table 12, JMAR (Head and Neck Cancer). The text has this:
Biological activity of these compounds of the present disclosure may be measured using a variety of different methods and techniques. In some embodiments of the present disclosure, the activity is measuring using anti-proliferation assays to determine an IC50 value for particular cell lines such as JMAR and MCF-7. Additionally, in other embodiments, the activity of the instant compounds is measuring using Western blot and measuring protein expression in a variety of different downstream poteins regulated by Hsp90.
(§2) Cells were maintained in a 1:1 mixture of Advanced DMEM/F12 (Gibco) supplemented with non-essential amino acids, L-glutamine (2 mM), streptomycin (500 μg/mL), penicillin (100 units/mL), and 10% FBS. Cells were grown to confluence in a humidified atmosphere (37° C., 5% CO2), seeded (2000/well, 100 μL) in 96-well plates, and allowed to attach overnight. Compound at varying concentrations in DMSO (1% DMSO final concentration) was added, and cells were returned to the incubator for 72 h. At 72 h, the number of viable cells was determined using an MTS/PMS cell proliferation kit (Promega) per the manufacturer's instructions. Cells incubated in 1% DMSO were used at 100% proliferation, and values were adjusted accordingly. IC50 values were calculated from separate experiments performed in triplicate using GraphPad Prism.

In a further assay the test system is SKME128 (Melanoma). As to the kind of experiment: Activity of compounds in cancer cell lines, SKME128. Conditions: Table 12, SKME128 (Melanoma). It is filed as cell-based. The protocol: as §2
Where [5] appears, read: MCF7, Table 9, para-meta biphenyl core with prenylated benzylamide.
Setting [6] is: SK-BR-3, Table 9, para-meta biphenyl core with prenylated benzylamide.
Where [7] appears, read: MCF-7 cells, FIG. 1, all concentrations tested.
[8] abbreviates: MCF7, Table 1, ortho, meta and para biphenyl cores.
Setting [9] is: SK-BR-3, Table 1, ortho, meta and para biphenyl cores.

A word on the IC50: it is the midpoint of a concentration-inhibition curve. A low value points to greater potency. Regarding `CC(C)=CCc1cc(C(=O)Nc2cccc(-c3ccc(OC4CCN(C)CC4)cc3)c2)ccc1O` [Compound 3a], the “Her2, Raf-1 and p-Akt (western blot, concentration-dependent analysis)” value in assay [1] (MCF-7 cell lysates, FIG. 2B) is “degradation of Her2, Raf-1 and p-Akt”. The IC50 came to 2.21 ± 0.06 µM in assay [2] (setting [5]) and 2.94 ± 0.11 µM in assay [3] (setting [6]).
For the compound `COc1cccc(-c2cc(C(=O)Nc3cccc(-c4ccc(OC5CCN(C)CC5)cc4)c3)ccc2OC)c1` [Compound 6a, 3′,6-dimethoxy-N-(4′-((1-methylpiperidin-4-yl)oxy)-[1,1′-biphenyl]-3-yl)-[1,1′-biphenyl]-3-carboxamide], the “Hsp90 client proteins Her2 and Raf-1 (western blot)” value in assay [1] (MCF-7 cell lysates, FIG. 2A, concentrations that mirror anti-proliferative IC50 values) is reported as “degraded”. Further, the “non-Hsp90-dependent protein actin (western blot)” value in assay [1] (MCF-7 cells) is “not affected”. In addition, the “Hsp90 levels (western blot)” value in assay [1] (setting [7]) is listed as “remained constant”. Further, in assay [1] (MCF-7 cells), the “Hsp90-dependent client proteins Her2, Raf, and Akt (western blot)” value is on record as “degradation in a concentration-dependent manner”. Moreover, the 50% inhibitory concentration (IC50) in assay [2] (setting [8]) was determined as 1.25 ± 0.02 µM; in assay [2] (setting [5]) it was 2.71 ± 0.4 µM; in assay [3] (setting [9]) it was 3.65 ± 0.14 µM; in assay [3] (setting [6]), 3.47 ± 0.47 µM.
`CN1CCC(Oc2ccc(-c3cccc(NC(=O)c4ccc(Br)cc4)c3)cc2)CC1` [Compound 6l, 4-Bromo-N-(4′-((1-methylpiperidin-4-yl)oxy)-[1,1′-biphenyl]-3-yl)benzamide]: in assay [1] (MCF-7 cell lysates, FIG. 3), the “Hsp90-dependent client proteins Her2, Raf-1 and p-Akt (western blot)” value is “degraded in a concentration dependent manner”; the “Hsp90 levels (western blot)” value was “remained unchanged”; the “actin levels (western blot)” value was “remained constant”. The midpoint of inhibition in assay [2] (MCF7, Table 2, para-meta biphenyl core with substituted benzylamide), the IC50, lay at 0.88 ± 0.07 µM. This compound came in with an IC50 in assay [3] (SK-BR-3, Table 2, para-meta biphenyl core with substituted benzylamide) of 1.94 ± 0.11 µM.
`COc1cccc(-c2cc(C(=O)Nc3ccc(-c4ccc(OC5CCN(C)CC5)cc4)cc3)ccc2OC)c1` [Compound 9a, 3′,6-dimethoxy-N-(4′-((1-methylpiperidin-4-yl)oxy)-[1,1′-biphenyl]-4-yl)-[1,1′-biphenyl]-3-carboxamide]: in assay [1] (MCF-7 cells), the “non-Hsp90-dependent protein actin (western blot)” value is listed as “not affected”. Further, the “Hsp90 levels (western blot)” value in assay [1] (setting [7]) was “remained constant”. In addition, the “Hsp90-dependent client proteins Her2, Raf, and Akt (western blot)” value in assay [1] (MCF-7 cells) is “degradation in a concentration-dependent manner”. Also, the IC50 was 0.71 ± 0.02 µM in assay [2] (setting [8]); 0.71 ± 0.02 µM in assay [2] (MCF7, Table 3, substituted para-para biphenyl core); 0.71 ± 0.02 µM in assay [2] (MCF7, Table 5, modified linkers in para-para biphenyl core); 0.71 ± 0.02 µM in assay [2] (MCF7, Table 7, para-para biphenyl core with modified ether groups); 0.71 ± 0.02 µM in assay [2] (MCF7, Table 8, para-para biphenyl core with substituted biphenylamide group); 0.47 ± 0.06 µM in assay [3] (setting [9]). The IC50 in assay [3] (SK-BR-3, Table 3, substituted para-para biphenyl core) came to 0.47 ± 0.06 µM; in assay [3] (SK-BR-3, Table 5, modified linkers in para-para biphenyl core), 0.47 ± 0.06 µM; in assay [3] (SK-BR-3, Table 7, para-para biphenyl core with modified ether groups), 0.47 ± 0.06 µM; in assay [3] (SK-BR-3, Table 8, para-para biphenyl core with substituted biphenylamide group) it was 0.47 ± 0.06 µM.
Turning to `CO[C@@H]1[C@@H](OC(N)=O)[C@@H](O)[C@H](Oc2ccc3c(O)c(NC(=O)c4ccc(O)c(CC=C(C)C)c4)c(=O)oc3c2C)OC1(C)C` [Novobiocin], the “efficiency as Hsp90 C-terminal inhibitor” value with SKBr3 cells is about 700 µM.
The compound `CN1CCC(Oc2ccc(-c3cccc(NC(=O)c4ccc(Br)cc4)c3)cc2)CC1` [drawing 161] had a half-maximal inhibitory concentration (IC50) in assay [4] of 0.11 µM. That is a sub-micromolar value.
On the same count and under the same terms, the same measure for `COc1ccc(C(=O)Nc2ccc(Nc3ccc(OC4CCN(C)CC4)cc3)cc2)cc1` [drawing 162]: 0.0097 µM.
As for `CN1CCC(Oc2ccc(-c3ccc(NC(=O)c4ccc(C(C)(C)C)cc4)cc3)cc2)CC1` [drawing 163], in the assay with SKME128 (Melanoma), half-maximal inhibition (IC50) required 0.48 µM.
